Values quoted from earlier work in US9302241B2, “Method of preparing lipid nanoparticles” (UNIVERSITE D'ANGERS, priority 2008, dated 2016).

Conditions: concentration of Fondaparinux in its brand form Arixtra

Fondaparinux
solubility in water: greater than 12.5 mg/ml
